Assay results published in publication PMC6207720, “Identification and antitumor activity of a novel inhibitor of the NIMA-related kinase NEK6” (Scientific Reports, 2018).

Legend:
NEK6 = biological target: T1, NEK6 (Homo sapiens, UniProt Q9HC98); assay: LANCE-Ultra NEK6 kinase assay; type: biochemical; conditions: 100 µM ATP
T1 construct: purchased Carna 05-130
Description: The twenty-five compounds resulting from virtual screening were firstly tested for the ability to inhibit the enzymatic activity of NEK6 at a single concentration of 30 µM, using LANCE technology. Quercetin, able to inhibit a broad panel of kinase, was used as positive control of inhibition[12],[30]. This initial screening allowed the identification of two compounds determining >70% NEK6 inhibition at 30 µM, i.e. compound 8 (6-hydroxy-4-methyl-2-oxo-5-[(5-phenyl (2-furyl)) methylene] pyridine-3-carbonitrile), and 21 (6-amino-2-phenyl-5,7,9-triazatetracyclo[8.7.0.0^3,^8 0^11,^16]heptadeca-1(10),3(8),6,11,13,15 hexaene-4,17-dione) (Fig. 4). […] The possible binding mode of compound 8 in the ATP-binding site of NEK6 as well as nonbonded interactions across the complex interface are shown in Fig. 6. Compound 8 may use its phenyl ring and furyl ring to form hydrophobic Pi-alkyl interactions with Ala72 (strand β3), Ala125 (hinge region) and Val59 (strand β2) of the ATP binding site (Fig. 6B). […] This is particulary relevant when considering that C–H···O hydrogen bonds play an important role in the ligand-binding process[33]–[35].
Compounds (i.e. 1 to 25) (Molport, Riga, LV-1011, Latvia) were dissolved in DMSO 100% as 10 mM stock and stored at −20 C. Activity of the compounds as NEK6 inhibitors was tested using LANCE NEK6 Ultra Kinase Assays protocol (U-TRF #25 technical note, PerkinElmer, Monza, MB). Compounds were first tested at 30 µM and incubated with 4 nM NEK6 (Carna, Chuo-ku, Kobe, Japan, # 05-130), 50 nM ULight-p70 S6K Peptide (PerkinElmer # TRF0126) and 100 μM ATP (Sigma-Aldrich, Saint Louis, U.S.A, # A2383) at room temperature. Kinase reactions were terminated after 90 minutes by the addition of EDTA and the signal was read with the Enspire plate reader (PerkinElmer) in TR-FRET mode (excitation at 320 nm and emission at 665 nm) after 60 minutes. Inhibition of NEK6 activity was calculated as percentage with respect to the control sample (100% of activity). Quercetin was used as positive control (Molport). […] For each compound the dose inhibiting 50% of NEK6 activity (IC50) was calculated using the GraphPad Prism 5.0 Software (San Diego, CA, USA).

NEK1 = biological target: T2, NEK1 (Homo sapiens, UniProt Q96PY6); assay: Off-chip Mobility Shift Assay (MSA) profiling, NEK1; type: biochemical; conditions: ATP approximating Km
T2 sequence (Q96PY6 1-1258): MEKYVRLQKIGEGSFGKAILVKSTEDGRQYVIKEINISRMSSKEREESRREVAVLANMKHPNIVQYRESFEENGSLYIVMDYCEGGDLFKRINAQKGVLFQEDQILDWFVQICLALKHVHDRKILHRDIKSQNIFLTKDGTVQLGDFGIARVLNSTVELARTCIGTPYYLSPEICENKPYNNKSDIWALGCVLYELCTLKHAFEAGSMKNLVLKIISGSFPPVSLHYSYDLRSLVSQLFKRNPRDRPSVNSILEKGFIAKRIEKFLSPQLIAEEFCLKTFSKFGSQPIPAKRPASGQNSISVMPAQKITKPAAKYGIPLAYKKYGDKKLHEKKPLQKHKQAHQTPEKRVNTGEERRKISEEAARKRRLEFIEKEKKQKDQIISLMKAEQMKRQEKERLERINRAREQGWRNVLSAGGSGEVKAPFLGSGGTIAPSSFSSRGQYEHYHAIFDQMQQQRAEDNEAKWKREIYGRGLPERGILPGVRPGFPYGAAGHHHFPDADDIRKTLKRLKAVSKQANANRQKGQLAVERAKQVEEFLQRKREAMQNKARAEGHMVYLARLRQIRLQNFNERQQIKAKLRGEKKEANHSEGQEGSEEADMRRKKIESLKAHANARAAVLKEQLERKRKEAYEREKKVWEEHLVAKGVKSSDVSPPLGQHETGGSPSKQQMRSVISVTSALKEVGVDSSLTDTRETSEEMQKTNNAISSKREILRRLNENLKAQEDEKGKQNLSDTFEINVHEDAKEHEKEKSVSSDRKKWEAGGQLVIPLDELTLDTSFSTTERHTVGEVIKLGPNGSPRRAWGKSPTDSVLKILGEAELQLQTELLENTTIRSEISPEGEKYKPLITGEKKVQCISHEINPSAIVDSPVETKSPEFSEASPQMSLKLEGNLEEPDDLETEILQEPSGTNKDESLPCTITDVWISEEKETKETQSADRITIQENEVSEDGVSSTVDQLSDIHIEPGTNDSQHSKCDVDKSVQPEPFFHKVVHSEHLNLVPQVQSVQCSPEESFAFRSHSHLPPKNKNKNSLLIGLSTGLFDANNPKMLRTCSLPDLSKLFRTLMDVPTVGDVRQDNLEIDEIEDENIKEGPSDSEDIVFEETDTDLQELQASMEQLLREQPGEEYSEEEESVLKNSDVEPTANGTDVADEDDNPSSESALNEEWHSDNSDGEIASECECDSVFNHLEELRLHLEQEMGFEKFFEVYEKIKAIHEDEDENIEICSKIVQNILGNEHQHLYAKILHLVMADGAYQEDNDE
Description: Therefore, we decided to evaluate the selectivity of compound 8 against a panel of NEK kinases at 10 µM, using the technique of Off-chip Mobility shift assay. This concentration was chosen according to the guidelines proposed by Knight and Shokat, since the probability of off-target effects increases dramatically above 10 µM[36]. Furthermore, ATP concentration was set to approximate the Km,ATP for each kinase, so that the resulting selectivity profile directly reflects the intrinsic affinities of the inhibitor[37]. […] A major consequence of this substitution may be the redistribution of surface charges at the flexible activation loop resulting in an altered electrostatic potential and ability of NEK6 kinase to interact with other molecules.
The inhibitory activity of compounds 8 and 21 on NEK6 was also verified with MSA technique (Off-chip Mobility shift assay) (CARNA Biosciences Study ID: CBS170097, CARNA Biosciences, Kobe). […] PKR Inhibitor was used as positive control. For profiling study against NEK kinases (i.e. NEK1, NEK2, NEK6, NEK7, NEK9) (CARNA Biosciences Study ID: CBS170098), 8 was tested at 10 μM and ATP concentration approximating Km for each kinase. Assay condition for kinases are available on “Kinase profiling book” downloading by www.carnabio.com (https://www.carnabio.com/output/pdf/ProfilingProfilingBook_en.pdf).

T1 sequence (Q9HC98 whole entry): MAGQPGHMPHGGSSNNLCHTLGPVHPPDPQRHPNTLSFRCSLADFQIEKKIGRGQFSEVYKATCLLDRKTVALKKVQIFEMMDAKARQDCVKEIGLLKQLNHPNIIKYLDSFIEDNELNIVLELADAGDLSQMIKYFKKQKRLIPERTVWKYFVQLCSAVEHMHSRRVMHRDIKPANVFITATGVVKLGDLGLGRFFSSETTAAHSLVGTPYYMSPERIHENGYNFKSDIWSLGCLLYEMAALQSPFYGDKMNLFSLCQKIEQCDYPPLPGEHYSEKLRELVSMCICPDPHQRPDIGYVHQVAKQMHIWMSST

IC50 (NEK6; LANCE-Ultra, mean ± SEM of 4 independent experiments): 3.4 ± 1.2 µM
inhibition at 30 µM (NEK6; single concentration 30 µM, LANCE): > 70%
inhibition at 10 µM (NEK1): 47%
SMILES: CC1=C(C#N)C(O)=NC(=O)/C1=C\c1ccc(-c2ccccc2)o1 [Compound 8, (5Z)-2-hydroxy-4-methyl-6-oxo-5-[(5-phenylfuran-2-yl)methylidene]-5,6-dihydropyridine-3-carbonitrile]
